From patent US11613552B2, “Pharmaceutical agents, compositions, and methods relating thereto” (Alltech, Inc., priority 2017, dated 2023)

Key:
Assay type in all cases: cell-based, mouse
AML-12 cells = experiment: Glucose uptake assay in AML-12 cells
Method: Equal numbers of amplified AML-12 cells were seeded on 96 well plates (1.5×10^5/well) and cultured in 10% FBS but ITS/Dex-free DMEM/F12 media overnight. Then these cells were washed twice with PBS (to remove any potential residual sera), and serum-starved in plain DMEM/F12 media overnight. These serum-starved AML-12 cells were treated without (basal), with insulin (10 and 100 nM) or Compound #43 (150, 300 and 600 ppb) in glucose/phenol red-free DMEM media at 37° C. for 1.5 hr. After treatment, media was removed and cells were washed once with PBS and incubated with 1 mM 2-deoxyglucose (2DG) at room temperature for 30 min. The 2DG-treated cells were then subjected to glucose uptake measurement using Promega's Glucose Uptake-Glo Assay kit, according to the manufacturer's protocol. Luminescent signals were recorded using a Bio-Tek luminometer.

G6pc = experiment: QRT-PCR of basal G6pc expression in AML-12 cells
Method: For RNA analysis of basal G6pc expression (without the presence of diabetic stimuli: 8-CPT/Dex), amplified AML-12 and HepG2 cells were cultured on 24-well plates (0.5-2×10^5 cells/well) overnight in 10% FBS ITS- and Dex-free DMEM/F12 media and 10% FBS EMEM media, respectively. These cells were rinsed twice with PBS to remove residual sera. Then, the PBS-washed HepG2 cells were treated without or with insulin or Compound #43 in serum-free EMEM media for 40 hr. In some experiments, the PBS-washed AML-12 cells were incubated without or with Compound #43 or other selenium compounds in serum-free DMEM/F12 media for 24 hours. In other experiments, amplified AML-12 cells were pretreated without or with Compound #43 (150 or 300 ppb) in 10% FBS but ITS/Dex-free DMEM/F12 media for 24 hr. After 24 hr treatment, AML-12 cells were washed twice with PBS (to remove any residual serum in the culture) and then treated with insulin, Compound #43 or both, in the serum-free DMEM/Dex media for 6 hr.
Total RNA from saline- or selenium compound-treated Lepr^db/db mice was isolated using a Qiagen RNAeasy RNA isolation kit according to the Manufacturer's protocol. Total RNA from cultured cells was isolated using Trizol (Invitrogen) according to the manufacturer's protocol, and then incubated with DNase I to remove any potential contaminating genomic DNA. RNA samples were subjected to real-time PCR (QRT-PCR) analysis using Applied-Bioscience's RT kit and predesigned Taqman probes (Invitrogen), as described previously (Lan et al EMBO J 2003). Data were normalized by Actin B (Actb) mRNA levels in each sample, and are presented as mean±SEM of 3-5 samples.

Insrβ/Pdk1/Akt/AS160 = experiment: Western blot of Insrβ/Akt/AS160 phosphorylation in differentiated C2C12 cells; settings: for pInsrβ levels: 200 nM insulin or 600 ppb Compound #43, prolonged treatment 60 minutes
Method: To differentiate the C2C12 cells, equal number of these myoblast cells were firstly seeded on 12-well plates (60,000 cells/well) and cultured in 10% FBS DMEM media at 37° C. for 5 days. These cells were replenished daily with fresh 10% FBS DMEM media. At day 5 after the culture, C2C12 cells were differentiated using 0.5% horse serum (Sigma)-containing DMEM media (differentiation media) for 7 days with daily replacement of fresh differentiation media, similar to previous described (Misu et al, Cell Metabolism 12, 483-495, 2010). At day 7 after the differentiation, differentiated C2C12 cells were rinsed with PBS twice and incubated in serum-free DMEM media overnight. Then these serum-starved cells were treated without (basal) or with insulin (200 nM), Compound #43 (600 ppb), or both insulin and Compound #43 in serum-free DMEM media at 37° C. for 5 and 60 minutes.
After the above treatments, cultured HepG2 cells or differentiated C2C12 cells were rinsed twice with ice-cold PBS and lysed in ice-cold RIPA buffer containing complete proteinase and phosphatase inhibitors (Thermo-Fisher Scientific, Waltham, Mass.) on ice for 30 min. Cell lysates were collected using a cell scraper and transfer pipette, and then centrifuged at 12000×g for 30 min at 4° C. to remove the DNA pellet and obtain the protein extract. Protein levels in the supernatant of these cell lysates were determined using the Pierce Micro-BCA protein assay kit (Thermo Scientific-Piece Biotechnology, Rockford, Ill.) according to the manufacturer's protocol.
One hundred micrograms of skeletal muscle or liver tissue proteins, five micrograms of HepG2 cell protein extracts, or eight micrograms of differentiated C2C12 cell protein extracts were subjected to SDS-PAGE gel separation and then transferred to PVDF membranes, as described previously (Reddy et al. 2008 Science). Membranes were blocked in a phosphate-buffered saline (PBS) containing 5% (w/v) of bovine serum albumin (Sigma, St. Louis, Mo.) and incubated with specific primary antibodies followed by the incubation with HRP-conjugated anti-mouse or anti-rabbit secondary antibodies (1:5000 dilution, Cell Signaling Inc.). All primary antibodies were purchased from Cell Signaling Inc, except the antibodies against β-tubulin (LI-COR bioscience). Positive signals on the membrane blots were detected using the Amersham's enhanced chemiluminescence Western Blotting Prime Detection reagents (GE Healthcare Lifescience, Pittsburgh, Pa.). Images of these luminescence signals on the membrane blots were captured using the LI-COR Odyssey Fc Image system (Lincoln, Nebr.). The same membrane blot was stripped and re-blotted with another antibody as described in the GE WB ECL-prime-detection protocol (GE healthcare Lifescience, Pittsburgh, Pa.). Protein band densities in the Western blots were determined using the NIH ImageJ software and then normalized by β-tubulin or ACTB protein level in each sample. Data are presented as mean±SEM of 3-5 samples per group.

[1] = 200 nM insulin or 600 ppb Compound #43, 5 minutes
[2] = 200 nM insulin or 600 ppb Compound #43, 60 minutes

Compound | effect on glucose uptake (AML-12 cells; 150, 300 and 600 ppb, 1.5 hr (FIG. 17)) | extent of increased glucose uptake (AML-12 cells; 600 ppb, 1.5 hr) | time to stimulate glucose uptake (AML-12 cells; serum-free) | effect on G6pc expression (G6pc; 150 and 300 ppb, 24 hr pretreatment then 6 hr retreatment (FIG. 10C)) | decrease of G6pc expression vs Control (G6pc; 300 ppb selenium (3.8 μM of each compound), serum-free, 24 hr (FIG. 10A)) [%] | decrease in G6pc mRNA levels vs either agent alone (G6pc; pretreatment then co-treatment with 10 nM insulin, 6 hr (FIG. 10C)) | pInsrβ at Y1146 (Insrβ/Pdk1/Akt/AS160; [1]) | phosphorylated Akt protein levels (Insrβ/Pdk1/Akt/AS160; [1]) | phosphorylated Akt protein levels (Insrβ/Pdk1/Akt/AS160; [2]) | pInsrβ levels (Insrβ/Pdk1/Akt/AS160) | phosphorylated AS160 and total AS160 protein levels (Insrβ/Pdk1/Akt/AS160; 600 ppb alone, 5 minutes) | increase in phosphorylated AS160 at S588 (Insrβ/Pdk1/Akt/AS160; 600 ppb, 60 minutes) | pInsrβ protein levels (Insrβ/Pdk1/Akt/AS160; co-treatment insulin 200 nM and Compound #43 600 ppb, 5 minutes) | phosphorylated AS160 protein levels (Insrβ/Pdk1/Akt/AS160; co-treatment insulin and Compound #43, 5 and 60 minutes) | pAkt protein levels (Insrβ/Pdk1/Akt/AS160; co-treatment insulin and Compound #43, both tested time points) | effect on glucose uptake (AML-12 cells; 10 nM insulin, 1.5 hr) | effect on glucose uptake (AML-12 cells; 100 nM insulin, 1.5 hr) | decrease of G6pc mRNA levels vs Control (G6pc; 10 nM insulin, serum-free, 6 hr (FIG. 10C)) | increase in phosphorylation of AS160 at S588 (Insrβ/Pdk1/Akt/AS160; 200 nM insulin, 5 min) | phosphorylated AS160 (Insrβ/Pdk1/Akt/AS160; 200 nM insulin, 60 minutes)
C[Se]C[C@H]1O[C@@H](n2cnc3c(N)ncnc32)C(OC(C)=O)C1OC(C)=O (stereo partly drawn) [Compound #43, Adenosine, 5′-Se-methyl-5′-selino-, 2′,3′-diacetate] | significant increase of glucose uptake | comparable to 100 nM insulin | less than 1.5 hr | significant decrease of G6pc expression with the decrease levels comparable to 10 nM insulin | ~60 | more pronounced | significant increase of pInsrβ at Y1146 | did not cause a significant increase of phosphorylated Akt protein levels | robust increased of phosphorylated Akt proteins levels | decrease in pInsrβ levels | did not affect the protein levels of phosphorylated AS160 and total AS160 | about 6 fold | tended to increase pInsrβ protein levels | significant increase of phosphorylated AS160 protein levels | significant increase of pAkt protein levels |  |  |  |  | 
insulin: insulin purchased from Sigma, positive control |  |  |  |  |  |  | significant increase of pInsrβ at Y1146 | significant increase of phosphorylated Akt | not observed | decrease in pInsrβ levels |  |  |  |  |  | did not enhance the glucose uptake | significant increase of glucose uptake | about 65% | about 2 fold | no obvious increase in phosphorylated AS160
